Results reported in paper PMC7756582, “Prodrugs of γ‐Alkyl‐Modified Nucleoside Triphosphates: Improved Inhibition of HIV Reverse Transcriptase” (Angewandte Chemie (International Ed. in English), 2020).

Target: T1, human DNA polymerase γ (Homo sapiens, UniProt P54098)
T1 construct: purchased Roboklon
T1 sequence (P54098 1-1239): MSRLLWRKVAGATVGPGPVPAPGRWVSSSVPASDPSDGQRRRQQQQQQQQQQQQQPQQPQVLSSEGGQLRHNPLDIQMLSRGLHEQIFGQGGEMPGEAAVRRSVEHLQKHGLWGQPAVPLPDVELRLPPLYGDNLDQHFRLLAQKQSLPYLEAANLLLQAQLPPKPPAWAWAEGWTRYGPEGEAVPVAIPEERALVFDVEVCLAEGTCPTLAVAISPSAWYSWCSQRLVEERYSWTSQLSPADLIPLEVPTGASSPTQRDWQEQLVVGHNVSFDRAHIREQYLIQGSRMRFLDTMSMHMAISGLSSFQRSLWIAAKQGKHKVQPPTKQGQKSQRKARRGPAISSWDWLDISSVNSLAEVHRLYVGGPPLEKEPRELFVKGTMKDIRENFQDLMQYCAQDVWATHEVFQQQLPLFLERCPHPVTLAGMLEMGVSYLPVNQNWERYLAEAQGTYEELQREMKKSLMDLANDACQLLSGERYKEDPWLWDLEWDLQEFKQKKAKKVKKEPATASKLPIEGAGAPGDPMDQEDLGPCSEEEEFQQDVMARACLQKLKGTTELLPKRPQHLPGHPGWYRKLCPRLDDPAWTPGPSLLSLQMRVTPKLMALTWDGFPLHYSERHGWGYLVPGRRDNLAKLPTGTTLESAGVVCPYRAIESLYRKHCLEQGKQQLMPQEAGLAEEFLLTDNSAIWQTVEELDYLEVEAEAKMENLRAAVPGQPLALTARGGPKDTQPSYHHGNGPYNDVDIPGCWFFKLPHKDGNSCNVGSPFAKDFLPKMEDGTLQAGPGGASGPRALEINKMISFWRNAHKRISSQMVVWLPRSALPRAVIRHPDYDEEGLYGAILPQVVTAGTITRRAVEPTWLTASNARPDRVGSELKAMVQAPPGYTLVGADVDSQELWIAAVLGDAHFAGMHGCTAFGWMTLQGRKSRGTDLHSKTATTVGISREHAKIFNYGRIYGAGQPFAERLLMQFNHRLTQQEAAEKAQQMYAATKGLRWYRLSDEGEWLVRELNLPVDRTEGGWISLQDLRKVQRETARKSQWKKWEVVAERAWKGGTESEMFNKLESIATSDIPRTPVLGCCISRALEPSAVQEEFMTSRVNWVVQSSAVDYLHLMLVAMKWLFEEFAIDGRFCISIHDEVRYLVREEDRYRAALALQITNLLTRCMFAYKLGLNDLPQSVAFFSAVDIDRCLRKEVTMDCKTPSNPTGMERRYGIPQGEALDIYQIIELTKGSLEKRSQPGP
Assay: Primer extension assay with human DNA polymerase γ
Format: biochemical
Conditions: dNTPs 250 μM, Pol γ 4 U
Protocol: Two different set‐ups have been used. First, a mixture of dATP, dCTP, dGTP, and γ‐alkyl‐TTP (N*) or ‐d4TTP (T*) was used as a mixture. The results obtained from these experiments were compared to those in which just γ‐alkyl‐TTP (N) or d4TTP (T) was used. In each experiment a primer extension without added polymerase (negative control, ‐ lane) and an experiment in which all four canonical NTPs were added (positive control, +lane) were used as controls.
Anti-HIV activity assay: Inhibition of HIV-1(IIIB)- and HIV-2(ROD)-induced cytopathicity in wild-type CEM/0 and thymidine kinase-deficient CEM/TK- cell cultures was measured in microtiter 96-well plates containing ~3·105 CEM cells/mL infected with 100 CCID50 of HIV per milliliter and containing appropriate dilutions of the test compounds. After 4−5 days of incubation at 37 °C in a CO2-controlled humidified atmosphere, CEM giant (syncytium) cell formation was examined microscopically. The EC50 (50% effective concentration) was defined as the compound concentration required to inhibit HIV-induced giant cell formation by 50%. […]
2) For HIV- RT assay: The final assay solution (10 µL) consists of 50 mM Tris-HCl (pH 8.6 at 22 °C), 10 mM MgCl2, 40mM KCl, dNTPs 66 µM, HIV RT 6 U, Hybrid 0.32 µM in a reaction volume of 10 µL, incubated 37 °C for 15 min, 80 °C for 3 min; 50 mA, 45w for 4 h. […] The result was visualized by fluorescence imaging. […]

`Cc1cn(C2C=CC(COP(=O)(O)OP(=O)(O)OP(=O)(O)O)O2)c(=O)[nH]c1=O` (stereo not shown) [2 t, d4TTP, reference compound] was tested. Which “primer extension by DNA polymerase γ (substrate properties)” value did it give?
The value was “not substrates”.
